The results in this text go back to the NIST ThermoML archive (doi:10.1021/acs.jced.7b00171).

SMILES strings stand for the structures. Numbers after ± are expanded uncertainties.

The series in a line: Solid-liquid equilibrium temperature. The note with it: Crystal 1, visual observation.

For `C1CCCCC1` [cyclohexane], the Solid-liquid equilibrium temperature was 280.31 ± 0.26 K (1310 kPa), 281.53 ± 0.34 K (3430 kPa) and 282.52 ± 0.41 K (5310 kPa).
